Test results taken from patent US12110279B2, “Triazolones, tetrazolones, and imidazolones, or their salts, and pharmaceutical compositions comprising the same” (Yuhan Corporation, priority 2021, dated 2024).
Structures can show the parent of a compound that is named as a salt. Where two headings read alike, the source gives them in different places.

How the values were obtained:
Type in all cases: biochemical
recombinant human VAP-1 = target: T1, recombinant human VAP-1 (Homo sapiens, UniProt Q16853); assay: Amplex Red HRP-coupled amine oxidase activity evaluation, recombinant human VAP-1; conditions: substrate 1 mM benzylamine; 30 min preincubation at 37° C.; read-out: Inhibitory Activity (IC50, nM) human VAP-1
T1 construct: purchased R&D systems
T1 sequence (Q16853 1-763): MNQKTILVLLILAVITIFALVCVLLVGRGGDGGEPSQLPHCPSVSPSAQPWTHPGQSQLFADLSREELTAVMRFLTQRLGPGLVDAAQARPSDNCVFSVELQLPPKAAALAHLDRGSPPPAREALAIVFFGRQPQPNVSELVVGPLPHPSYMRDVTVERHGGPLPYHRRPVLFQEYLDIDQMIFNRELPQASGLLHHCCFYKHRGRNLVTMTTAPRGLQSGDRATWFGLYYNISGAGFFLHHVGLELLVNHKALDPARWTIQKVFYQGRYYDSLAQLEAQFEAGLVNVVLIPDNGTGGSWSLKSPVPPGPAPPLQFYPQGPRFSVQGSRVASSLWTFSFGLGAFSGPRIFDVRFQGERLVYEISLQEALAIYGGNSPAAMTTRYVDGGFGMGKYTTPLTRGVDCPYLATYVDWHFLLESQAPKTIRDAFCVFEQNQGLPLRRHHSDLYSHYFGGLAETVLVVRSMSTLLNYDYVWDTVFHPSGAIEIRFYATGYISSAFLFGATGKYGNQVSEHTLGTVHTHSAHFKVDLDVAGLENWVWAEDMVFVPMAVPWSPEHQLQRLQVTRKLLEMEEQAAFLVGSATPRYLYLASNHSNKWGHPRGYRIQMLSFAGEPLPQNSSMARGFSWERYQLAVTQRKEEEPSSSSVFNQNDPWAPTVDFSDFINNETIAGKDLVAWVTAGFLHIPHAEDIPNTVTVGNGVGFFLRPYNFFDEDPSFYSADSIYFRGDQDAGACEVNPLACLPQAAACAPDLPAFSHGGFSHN
In short: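 Benzylamine served as substrate (1 mM in the reaction mix, with 200 uM Amplex Red and 1 U/mL HRP), with the H2O2 produced detected as resorufin fluorescence. Compound and VAP-1 were first incubated for 30 min at 37° C in pH 7.4 sodium phosphate buffer.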

[1] = target: T2, recombinant human MAO-A (monoamine oxidase-A) (Homo sapiens, UniProt P21397); assay: Amplex Red HRP-coupled amine oxidase activity evaluation, recombinant human MAO-A; conditions: substrate 0.5 mM tyramine; read-out: Inhibitory Activity (IC50, nM) MAO-A
T2 construct: purchased Sigma-Aldrich
T2 sequence (P21397 1-527): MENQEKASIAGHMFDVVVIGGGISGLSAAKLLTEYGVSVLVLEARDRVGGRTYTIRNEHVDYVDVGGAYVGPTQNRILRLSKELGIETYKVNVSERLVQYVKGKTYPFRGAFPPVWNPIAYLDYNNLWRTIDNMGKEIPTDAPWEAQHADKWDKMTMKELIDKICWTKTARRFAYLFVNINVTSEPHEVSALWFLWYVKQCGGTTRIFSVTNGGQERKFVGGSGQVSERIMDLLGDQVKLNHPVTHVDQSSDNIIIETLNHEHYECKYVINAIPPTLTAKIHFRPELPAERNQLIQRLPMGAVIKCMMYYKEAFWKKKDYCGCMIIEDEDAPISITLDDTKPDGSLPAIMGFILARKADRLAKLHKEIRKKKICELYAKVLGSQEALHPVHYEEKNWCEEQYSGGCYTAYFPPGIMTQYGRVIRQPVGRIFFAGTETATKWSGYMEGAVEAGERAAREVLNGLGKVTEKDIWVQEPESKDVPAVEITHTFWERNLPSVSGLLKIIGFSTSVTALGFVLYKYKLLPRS

[2] = target: T3, recombinant human MAO-B (monoamine oxidase-B) (Homo sapiens, UniProt P27338); assay: Amplex Red HRP-coupled amine oxidase activity evaluation, recombinant human MAO-B; conditions: substrate 1 mM benzylamine; read-out: Inhibitory Activity (IC50, nM) MAO-B
T3 construct: purchased Sigma-Aldrich
T3 sequence (P27338 1-520): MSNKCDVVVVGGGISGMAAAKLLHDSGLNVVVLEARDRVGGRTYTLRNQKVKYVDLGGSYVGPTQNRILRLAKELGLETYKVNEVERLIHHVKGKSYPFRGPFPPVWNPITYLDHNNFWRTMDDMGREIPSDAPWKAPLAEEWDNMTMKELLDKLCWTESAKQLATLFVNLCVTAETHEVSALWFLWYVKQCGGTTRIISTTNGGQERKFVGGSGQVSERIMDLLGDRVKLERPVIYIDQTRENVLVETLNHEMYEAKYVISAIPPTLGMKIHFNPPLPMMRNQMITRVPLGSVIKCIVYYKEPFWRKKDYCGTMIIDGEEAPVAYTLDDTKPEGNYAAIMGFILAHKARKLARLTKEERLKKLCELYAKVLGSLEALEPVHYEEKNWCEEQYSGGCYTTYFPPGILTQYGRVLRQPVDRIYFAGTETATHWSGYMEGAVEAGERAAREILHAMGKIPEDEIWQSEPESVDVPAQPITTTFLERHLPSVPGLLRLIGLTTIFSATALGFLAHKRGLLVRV

[3] = target: T4, recombinant human DAO (diamine oxidase) (Homo sapiens, UniProt P19801); assay: Amplex Red HRP-coupled amine oxidase activity evaluation, recombinant human DAO
T4 construct: purchased R&D systems
T4 sequence (P19801 20-751): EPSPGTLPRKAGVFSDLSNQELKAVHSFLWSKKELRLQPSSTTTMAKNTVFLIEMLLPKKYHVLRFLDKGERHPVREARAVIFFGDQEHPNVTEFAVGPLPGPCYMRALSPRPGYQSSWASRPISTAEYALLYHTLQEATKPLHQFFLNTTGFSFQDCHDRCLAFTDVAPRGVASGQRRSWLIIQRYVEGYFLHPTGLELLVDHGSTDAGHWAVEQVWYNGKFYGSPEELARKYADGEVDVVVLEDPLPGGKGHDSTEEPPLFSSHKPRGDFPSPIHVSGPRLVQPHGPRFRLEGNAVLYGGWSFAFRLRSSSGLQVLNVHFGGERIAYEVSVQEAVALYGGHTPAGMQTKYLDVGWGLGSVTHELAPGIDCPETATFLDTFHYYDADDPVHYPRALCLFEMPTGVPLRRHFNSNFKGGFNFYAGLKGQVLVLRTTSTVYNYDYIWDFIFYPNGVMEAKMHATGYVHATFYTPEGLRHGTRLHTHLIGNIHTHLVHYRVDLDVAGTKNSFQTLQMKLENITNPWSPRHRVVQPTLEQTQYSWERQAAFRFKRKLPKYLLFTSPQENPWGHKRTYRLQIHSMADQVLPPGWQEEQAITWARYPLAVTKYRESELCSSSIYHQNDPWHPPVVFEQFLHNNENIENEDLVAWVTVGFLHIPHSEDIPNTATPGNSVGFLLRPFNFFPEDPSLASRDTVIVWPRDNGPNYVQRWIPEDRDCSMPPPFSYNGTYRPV

[4] = substrate 1 mM putrescine, read-out: Inhibitory Activity (IC50, nM) DAO

IC50 (recombinant human VAP-1) [nM]	IC50 [1] [nM]	IC50 [2] [nM]	IC50 [3] [nM]	IC50 [3, 4] [nM]	SMILES
1.4	> 100000	2470	12		CN1C(=O)CCc2cc(-c3cccc(-n4nnn(CC(CN)=C(F)F)c4=O)c3)ccc21 [Example 14, 6-[3-[4-[2-(aminomethyl)-3,3-difluoro-allyl]-5-oxo-tetrazol-1-yl]phenyl]-1-methyl-3,4-dihydroquinolin-2-one trifluoroacetate]
> 100	> 100000	60200		192	CCn1cc(-c2ccc(Cn3ccn(CC(CN)=C(F)F)c3=O)s2)cn1 [Example 52, 1-[2-(aminomethyl)-3,3-difluoro-allyl]-3-[[5-(1-ethylpyrazol-4-yl)-2-thienyl]methyl]imidazol-2-one trifluoroacetate]
0.8	> 100000	768		> 100000	CN(C)c1ccc(-c2csc(-n3nnn(CC(CN)=C(F)F)c3=O)c2)cn1 [Example 38, 1-[2-(aminomethyl)-3,3-difluoro-allyl]-4-[4-[6-(dimethylamino)-3-pyridyl]-2-thienyl]tetrazol-5-one trifluoroacetate]
